{"source": "patent US20030089034A1", "about": "“Formulation and method for increasing the essential oil content in aromatic crops” (priority 2001, published 2003)", "type_in_all_cases": "in vivo", "key": {"[1]": {"tested_on": "Pelargonium graveolens cv. Bipuli", "test": "Large scale field testing at several concentrations, essential oil content", "conditions": "for Content of Essential Oil (%): distilled 15 days after spray, water 0.16, LSD (p = 0.05) 0.01", "protocol": "(§1) In the present example, field experiments were conducted, wherein 6 larger plots of Pelargonium graveolens cv. Bipuli (about 25 m^2) were sprayed with solutions of DL-2 amino butyric acid at several different concentrations. An equal number of plots sprayed with sterilized distilled water served as a control group. At least 20 samples of herbage from the sprayed plots and at least 20 samples of herbage from the control plots were distilled in Clevenger type glass apparatus 15 days after spray."}, "[2]": {"tested_on": "Chamomilla recutita, Artemisia pallens, Pelargonium graveolens, and Mentha arvensis", "test": "Screening of resistance-inducing chemicals on potted aromatic plants under glasshouse conditions", "conditions": "plants in pots, four aromatic plants", "excerpt": "In this example, fifteen chemicals known to induce resistance in plants were screened by applying the chemicals to four varieties of aromatic plants in pots. The four aromatic plants used in this screening included: Chamomilla recutita, Artemisia pallens, Pelargonium graveolens, and Mentha arvensis. […] These eight chemicals include isonicotinamide, DL-2 amino butyric acid, 4-chlorosalicylic acid, 2-amino isobutyric acid, o-acetyl salicylic acid, amino salicylic acid, salicylic acid, and 5-nitrosalicylic acid."}, "[3]": {"tested_on": "Pelargonium graveolens cv. Bipuli", "test": "Field testing of identified compounds, essential oil content", "conditions": "for Content of Essential Oil (%): 2 mM spray at onset of maturity, 15 days before harvest, water control 0.13, LSD (p = 0.05) 0.01; for change in essential oil content (in words): stated for the field tests of Table 1 (both plants) without naming the plant", "protocol": "(§2) The eight chemicals selected in the previous example for their effects on aromatic plants were subsequently field tested using 2 mM solutions of each chemical in sterilized distilled water. The field tests were performed on Pelargonium graveolens cv. Bipuli and Mentha arvensis cv. […] The plants were sprayed with the 2 mM solutions of the chemicals at the onset of maturity, 15 days before harvest. Plants sprayed with sterilized distilled water served as a control group."}, "Mentha arvensis cv. Kosi [4]": {"tested_on": "Mentha arvensis cv. Kosi", "test": "Field testing of identified compounds, essential oil content", "conditions": "for Content of Essential Oil (%): 2 mM spray at onset of maturity, 15 days before harvest, water control 0.66, LSD (p = 0.05) 0.06", "protocol": "as §2"}, "[5]": {"tested_on": "Pelargonium graveolens cv. Bipuli", "test": "Further large plot field testing at about 206 mg/L, essential oil content", "protocol": "as §1\n(§3) Further field testing involved samples of herbage of both Pelargonium graveolens cv. Bipuli and Mentha arvensis cv. Kosi being treated with a solution of DL-2 amino butyric acid at a concentration of about 206 mg/L in water. Similarly to the above tests, large plots were sprayed with the DL-2 amino butyric acid solution, and samples of herbage from both the sprayed plots and the control plots were examined for their essential oil content."}, "Mentha arvensis cv. Kosi [6]": {"tested_on": "Mentha arvensis cv. Kosi", "test": "Further large plot field testing at about 206 mg/L, essential oil content", "protocol": "as §1, §3"}, "Mentha arvensis cv. Kosi [7]": {"tested_on": "Mentha arvensis cv. Kosi", "test": "Optimal crop maturity stage for chemical application, essential oil content", "conditions": "2 mM spray, LSD (p = 0.05) 0.07", "protocol": "In this example, three of the chemicals described above were further investigated to determine the optimal crop maturity stage for applying the formulation. The three chemicals used in this example were DL-2 amino butyric acid, isonicotinamide, and salicylic acid, all at concentrations of 2 mM. The solutions were tested on Mentha arvensis cv. Kosi planted in a randomized block design with 5 replications. In these experiments, the crops were sprayed at 4 different stages of growth and development including 10-day-old crops, 50-day-old crops, 80-day-old crops, and 100-day-old crops."}, "[8]": {"conditions": "2 mM spray, versus water control"}, "[9]": {"conditions": "about 206 mg/L, compared to herbage samples treated only with water"}, "[10]": {"conditions": "age of crop at spray 10 days, water 0.67"}, "[11]": {"conditions": "age of crop at spray 50 days, water 0.67"}, "[12]": {"conditions": "age of crop at spray 80 days, water 0.68"}, "[13]": {"conditions": "age of crop at spray 100 days, water 0.66"}}, "data": [{"smiles": "CCC(N)C(=O)O", "note": "(racemic) [DL-2 amino butyric acid]", "values": [{"measurement": "Content of Essential Oil (%)", "setting": "[1]; 0.1 mM solution", "result": 0.16, "unit": "%"}, {"measurement": "Content of Essential Oil (%)", "setting": "[1]; 1.0 mM solution", "result": 0.17, "unit": "%"}, {"measurement": "increase in essential oil content", "setting": "[1]; 2 mM and 4 mM, versus water", "result": "about 25%"}, {"measurement": "Content of Essential Oil (%)", "setting": "[1]; 2.0 mM solution", "result": 0.20, "unit": "%"}, {"measurement": "Content of Essential Oil (%)", "setting": "[1]; 4.0 mM solution", "result": 0.20, "unit": "%"}, {"measurement": "improving growth and herbage and/or essential oil content", "setting": "[2]", "result": "particularly effective"}, {"measurement": "Content of Essential Oil (%)", "setting": "[3]", "result": 0.19, "unit": "%"}, {"measurement": "increase in essential oil content", "setting": "[3]; [8]", "result": "about 46%"}, {"measurement": "Content of Essential Oil (%)", "setting": "Mentha arvensis cv. Kosi [4]", "result": 0.84, "unit": "%"}, {"measurement": "increase in essential oil content", "setting": "Mentha arvensis cv. Kosi [4]; [8]", "result": "about 27%"}, {"measurement": "Content of Essential Oil (Mean % ± S.E.)", "setting": "[5]; about 206 mg/L in water, n ≧ 20 herbage samples, water 0.14 ± 0.01", "result": "0.19 ± 0.01", "unit": "%"}, {"measurement": "increase in essential oil content", "setting": "[5]; [9]", "result": "about 36%"}, {"measurement": "Content of Essential Oil (Mean % ± S.E.)", "setting": "Mentha arvensis cv. Kosi [6]; about 206 mg/L in water, n ≧ 20 herbage samples, water 0.74 ± 0.02", "result": "0.89 ± 0.02", "unit": "%"}, {"measurement": "increase in essential oil content", "setting": "Mentha arvensis cv. Kosi [6]; [9]", "result": "about 20%"}, {"measurement": "Content of Essential Oil (%)", "setting": "Mentha arvensis cv. Kosi [7]; [10]", "result": 0.80, "unit": "%"}, {"measurement": "Content of Essential Oil (%)", "setting": "Mentha arvensis cv. Kosi [7]; [11]", "result": 0.82, "unit": "%"}, {"measurement": "Content of Essential Oil (%)", "setting": "Mentha arvensis cv. Kosi [7]; [12]", "result": 0.81, "unit": "%"}, {"measurement": "Content of Essential Oil (%)", "setting": "Mentha arvensis cv. Kosi [7]; [13]", "result": 0.84, "unit": "%"}]}, {"smiles": "CC(C)(N)C(=O)O", "note": "[2-amino isobutyric acid]", "values": [{"measurement": "improving growth and herbage and/or essential oil content", "setting": "[2]", "result": "particularly effective"}, {"measurement": "Content of Essential Oil (%)", "setting": "[3]", "result": 0.12, "unit": "%"}, {"measurement": "Content of Essential Oil (%)", "setting": "Mentha arvensis cv. Kosi [4]", "result": 0.72, "unit": "%"}]}, {"smiles": "O=C(O)c1ccc(Cl)cc1O", "note": "[4-chloro salicylic acid]", "values": [{"measurement": "improving growth and herbage and/or essential oil content", "setting": "[2]", "result": "particularly effective"}, {"measurement": "Content of Essential Oil (%)", "setting": "[3]", "result": 0.13, "unit": "%"}, {"measurement": "Content of Essential Oil (%)", "setting": "Mentha arvensis cv. Kosi [4]", "result": 0.68, "unit": "%"}]}, {"smiles": "O=C(O)c1cc([N+](=O)[O-])ccc1O", "note": "[5-nitrosalicylic acid]", "values": [{"measurement": "improving growth and herbage and/or essential oil content", "setting": "[2]", "result": "particularly effective"}, {"measurement": "Content of Essential Oil (%)", "setting": "[3]", "result": 0.13, "unit": "%"}, {"measurement": "Content of Essential Oil (%)", "setting": "Mentha arvensis cv. Kosi [4]", "result": 0.73, "unit": "%"}]}, {"smiles": "NC(=O)c1ccncc1", "note": "[isonicotinamide]", "values": [{"measurement": "improving growth and herbage and/or essential oil content", "setting": "[2]", "result": "particularly effective"}, {"measurement": "Content of Essential Oil (%)", "setting": "[3]", "result": 0.14, "unit": "%"}, {"measurement": "change in essential oil content (in words)", "setting": "[3]; 2 mM spray", "result": "slight increase"}, {"measurement": "Content of Essential Oil (%)", "setting": "Mentha arvensis cv. Kosi [4]", "result": 0.70, "unit": "%"}, {"measurement": "Content of Essential Oil (%)", "setting": "Mentha arvensis cv. Kosi [7]; [10]", "result": 0.71, "unit": "%"}, {"measurement": "Content of Essential Oil (%)", "setting": "Mentha arvensis cv. Kosi [7]; [11]", "result": 0.70, "unit": "%"}, {"measurement": "Content of Essential Oil (%)", "setting": "Mentha arvensis cv. Kosi [7]; [12]", "result": 0.70, "unit": "%"}, {"measurement": "Content of Essential Oil (%)", "setting": "Mentha arvensis cv. Kosi [7]; [13]", "result": 0.70, "unit": "%"}]}, {"smiles": "O=C(O)c1ccccc1O", "note": "[salicylic acid]", "values": [{"measurement": "improving growth and herbage and/or essential oil content", "setting": "[2]", "result": "particularly effective"}, {"measurement": "Content of Essential Oil (%)", "setting": "[3]", "result": 0.11, "unit": "%"}, {"measurement": "change in essential oil content (in words)", "setting": "[3]; 2 mM spray", "result": "slight reduction"}, {"measurement": "Content of Essential Oil (%)", "setting": "Mentha arvensis cv. Kosi [4]", "result": 0.70, "unit": "%"}, {"measurement": "Content of Essential Oil (%)", "setting": "Mentha arvensis cv. Kosi [7]; [10]", "result": 0.70, "unit": "%"}, {"measurement": "Content of Essential Oil (%)", "setting": "Mentha arvensis cv. Kosi [7]; [11]", "result": 0.68, "unit": "%"}, {"measurement": "Content of Essential Oil (%)", "setting": "Mentha arvensis cv. Kosi [7]; [12]", "result": 0.70, "unit": "%"}, {"measurement": "Content of Essential Oil (%)", "setting": "Mentha arvensis cv. Kosi [7]; [13]", "result": 0.70, "unit": "%"}]}]}
